Experimental data published in PMC3332334 (Biochemistry, 2012).

Molecular target: PA1221 (Pseudomonas aeruginosa, UniProt Q9I4B7)
Assay: […]-PPi exchange assay
Format: biochemical
Conditions: 2 mM ATP, 0.2 mM PPi, 1 mM MgCl2, pH 7.5, 37 °C

**Q.** For `CC[C@H](C)[C@H](N)C(=O)O` [I, Ile], which 32P-PPi exchange assay (5 mM Ile) is on record?
**A.** Ile, Leu, and Ala utilized as substrates at a lower rate

**Q.** With `CC(C)[C@H](N)C(=O)O` [V, valine] as the compound, how does the 32P-PPi exchange assay (5 mM valine) read?
**A.** Valine resulted in the highest activity
